# Data reported in patent publication US8445491B2, “Wnt protein signalling inhibitors” (The Board of Regents of the University of Texas System, priority 2008, dated 2013).
# pEC50: −log10 of the molar value.
# System: caudal fin regeneration in zebrafish
# Assay: caudal fin regeneration assay in zebrafish
# Assay type: in vivo
# Settings: zebrafish, FIG. 25, concentration not given
# Protocol: FIG. 25. […] Arrows indicate the points of resection.
# 6 month-old zebrafish were incubated 8 or 14 days at 28.5° C. in aquarium water supplemented with 10 μM IWR or in 0.1% DMSO as a control. Fish were fed standard diet, and solutions were changed daily. At the end of the exposure, zebrafish were incubated in 1 mM BrdU in aquarium water for 2 hrs at room temperature, then washed several times in aquarium water, anesthetized with 0.1% Tricaine, and fixed in 4% paraformaldehyde for 48 hrs at 4° C. The intestine was dissected out, dehydrated, paraffin embedded and sectioned at […] intervals. Sections were stained with Hematoxylin and Eosin or processed for BrdU immunohistochemistry as described (Shepard et al., 2005). Sections from 8 animals each from IWR and DMSO groups were independently scored by four blinded observers. The total number of intestinal folds and total number of BrdU-positive nuclei in the mid and distal sections of the intestine were counted from each section. For caudal fin regeneration assays, zebrafish, 3-6 months of age, were anaesthetized in 0.2% Tricaine and half of the fin was resected using a razor blade to remove Amputees were reared at 31° C. in tanks containing either 300 ml of water with DMSO or IWR (10 μM). Water and compounds were replenished daily for a total assay period of 4 days.
row,SMILES,inhibition of fin regeneration
1,O=C(Nc1ccc(F)cc1)c1ccc(N2C(=O)[C@@H]3[C@@H]4C=CC(C4)[C@@H]3C2=O)cc1 [Compound 13],partial inhibition
2,O=C(Nc1ccc(F)cc1F)c1ccc(N2C(=O)[C@@H]3[C@@H]4C=CC(C4)[C@@H]3C2=O)cc1 [Compound 17],only retarded the growth of the tail fin

# System: Wnt/β-catenin pathway
# Assay: luciferase-based reporter assay (SuperTopFlash) measuring Wnt/β-catenin-dependent transcriptional response, L-Wnt-STF cells
# Assay type: cell-based
# Settings: Mus musculus; Table 1; luciferase reporter of Wnt/β-catenin-dependent transcriptional response
# Protocol: Tables 1 and 2 provides further examples of such compounds, as well as their activities as determined by a luciferase-based reporter assay that measures Wnt/β-catenin-dependent transcriptional response.
# For the “primary screen” and “dose-dependent test,” ˜5,000 L-Wnt-STF cells were seeded into each well of a white opaque 384 well plate and individual compounds from the UTSW chemical library added 24 hrs later to each well at a final concentration of 2.5 μM (primary screen) or otherwise indicated concentrations. Luciferase activities were measured 24 hrs later. To identify FL inhibitors and compounds that blocked protein secretion, L-cells were transiently transfected with CMV-FL and CMV-GL constructs and immediately incubated with compounds. Culture medium and cell lysates were analyzed for GL and FL activities, respectively, after 24 hrs. For the “exogenous Wnt test,” Wnt3A-containing conditioned medium, prepared following the protocol provided ATCC, was applied to HEK293 cells transiently transfected with STF and control reporters. For Hedgehog and Notch tests, NIH-3T3 cells or L-cells, respectively, were transiently transfected with indicated reporter constructs and immediately incubated with compounds. Luciferase activities were measured 24 hrs later. The “Wnt secretion test” was performed in L-cells transiently transfected with the Wnt-GL expression construct and immediately incubated with compounds. Culture medium and cellular lysate were analyzed 48 hrs later for GL activity. Assays used to calculate IC50's for compounds were performed as before in L-Wnt-STF cells.
# A brief overview of the screen is as follows: mouse L-cells that stably harbor a well-characterized Wnt/β-catenin pathway-responsive firefly luciferase (FL) reporter plasmid (SuperTopFlash or STF), a control reporter, and an expression construct encoding the Wnt protein, Wnt3A, were exposed to individual compounds for two days prior to measurement of reporter activities. Chemicals that altered FL but not control reporter activity were selected for further testing (FIG. 1; FIG. 8). The screening strategy allows for identification of compounds that either potentially increase or decrease Wnt/β-catenin pathway activity.
row,pEC50,SMILES
1,< 4.60,O=C(Nc1ccccc1C(F)(F)F)c1ccc(N2C(=O)[C@@H]3[C@@H]4C=CC(C4)[C@@H]3C2=O)cc1 [Compound 26]
2,6.00,O=C(Nc1ccc(Br)cc1)c1ccc(N2C(=O)[C@@H]3[C@@H]4C=CC(C4)[C@@H]3C2=O)cc1 [Compound 15]
3,< 4.60,O=C(Nc1cccc(F)c1)c1ccc(N2C(=O)[C@@H]3[C@@H]4C=CC(C4)[C@@H]3C2=O)cc1 [Compound 10]
4,5.00,O=C(Nc1ccc(Cl)cc1Cl)c1ccc(N2C(=O)[C@@H]3[C@@H]4C=CC(C4)[C@@H]3C2=O)cc1 [Compound 18]
5,5.30,O=C(Nc1ccc(Cl)c(Cl)c1)c1ccc(N2C(=O)[C@@H]3[C@@H]4C=CC(C4)[C@@H]3C2=O)cc1 [Compound 23]
6,< 4.60,O=C(Nc1ccccc1Br)c1ccc(N2C(=O)[C@@H]3[C@@H]4C=CC(C4)[C@@H]3C2=O)cc1 [Compound 9]
7,5.40,O=C(Nc1ccc(F)cc1)c1ccc(N2C(=O)[C@@H]3[C@@H]4C=CC(C4)[C@@H]3C2=O)cc1 [Compound 13]
8,5.00,O=C(NC1CCCc2cccnc21)c1ccc(N2C(=O)[C@@H]3[C@@H]4C=CC(C4)[C@@H]3C2=O)cc1 (stereo partly shown) [Compound 4]
9,< 4.60,O=C(Nc1cc(F)cc(F)c1)c1ccc(N2C(=O)[C@@H]3[C@@H]4C=CC(C4)[C@@H]3C2=O)cc1 [Compound 25]
10,5.05,O=C(Nc1cccc(Br)c1)c1ccc(N2C(=O)[C@@H]3[C@@H]4C=CC(C4)[C@@H]3C2=O)cc1 [Compound 12]
11,6.10,Cc1ccc2cccnc2c1NC(=O)c1ccc(N2C(=O)[C@@H]3[C@@H]4C=CC(C4)[C@@H]3C2=O)cc1 [Compound 3]
12,< 4.60,O=C(Nc1cccc(F)c1F)c1ccc(N2C(=O)[C@@H]3[C@@H]4C=CC(C4)[C@@H]3C2=O)cc1 [Compound 16]
13,6.00,COc1ccccc1NC(=O)c1ccc(N2C(=O)[C@@H]3[C@@H]4C=CC(C4)[C@@H]3C2=O)cc1 [Compound 5]
14,< 4.60,O=C(Nc1cc(F)ccc1F)c1ccc(N2C(=O)[C@@H]3[C@@H]4C=CC(C4)[C@@H]3C2=O)cc1 [Compound 20]
15,5.05,O=C(Nc1ccc(F)cc1F)c1ccc(N2C(=O)[C@@H]3[C@@H]4C=CC(C4)[C@@H]3C2=O)cc1 [Compound 17]
16,< 4.60,O=C(Nc1ccccc1F)c1ccc(N2C(=O)[C@@H]3[C@@H]4C=CC(C4)[C@@H]3C2=O)cc1 [Compound 7]

row,pEC50,SMILES
1,< 4.60,O=C(Nc1ccc(C(F)(F)F)cc1)c1ccc(N2C(=O)[C@@H]3[C@@H]4C=CC(C4)[C@@H]3C2=O)cc1 [Compound 28]
2,5.00,O=C(NCc1ccncc1)c1ccc(N2C(=O)[C@@H]3[C@@H]4C=CC(C4)[C@@H]3C2=O)cc1 [Compound 32]
3,< 4.60,O=C(Nc1ccccc1)c1ccc(N2C(=O)[C@@H]3[C@@H]4C=CC(C4)[C@@H]3C2=O)cc1 [Compound 6]
4,4.70,O=C(NCc1ccccc1)c1ccc(N2C(=O)[C@@H]3[C@@H]4C=CC(C4)[C@@H]3C2=O)cc1 [Compound 29]
5,5.00,O=C(Nc1ccc(Br)c(Br)c1)c1ccc(N2C(=O)[C@@H]3[C@@H]4C=CC(C4)[C@@H]3C2=O)cc1 [Compound 24]
6,4.70,O=C(Nc1cccc(C(F)(F)F)c1)c1ccc(N2C(=O)[C@@H]3[C@@H]4C=CC(C4)[C@@H]3C2=O)cc1 [Compound 27]
7,< 4.60,O=C(NCc1cccnc1)c1ccc(N2C(=O)[C@@H]3[C@@H]4C=CC(C4)[C@@H]3C2=O)cc1 [Compound 31]
8,< 4.60,O=C(Nc1ccccc1Cl)c1ccc(N2C(=O)[C@@H]3[C@@H]4C=CC(C4)[C@@H]3C2=O)cc1 [Compound 8]
9,5.52,O=C(Nc1ccc(F)c(F)c1)c1ccc(N2C(=O)[C@@H]3[C@@H]4C=CC(C4)[C@@H]3C2=O)cc1 [Compound 22]
10,< 4.60,O=C(NCc1ccccn1)c1ccc(N2C(=O)[C@@H]3[C@@H]4C=CC(C4)[C@@H]3C2=O)cc1 [Compound 30]
11,< 4.60,O=C(NC1CCCCC1)c1ccc(N2C(=O)[C@@H]3[C@@H]4C=CC(C4)[C@@H]3C2=O)cc1 [Compound 35]
12,< 4.60,O=C(Nc1c(F)cccc1F)c1ccc(N2C(=O)[C@@H]3[C@@H]4C=CC(C4)[C@@H]3C2=O)cc1 [Compound 21]
13,5.52,O=C(Nc1ccc(Cl)cc1)c1ccc(N2C(=O)[C@@H]3[C@@H]4C=CC(C4)[C@@H]3C2=O)cc1 [Compound 14]
14,< 4.60,O=C(Nc1ccc(Br)cc1Br)c1ccc(N2C(=O)[C@@H]3[C@@H]4C=CC(C4)[C@@H]3C2=O)cc1 [Compound 19]
15,< 4.60,O=C(Nc1cccc(Cl)c1)c1ccc(N2C(=O)[C@@H]3[C@@H]4C=CC(C4)[C@@H]3C2=O)cc1 [Compound 11]

# Same assay, conditions: Mus musculus; Table 2 (50-52, IWR-8 to IWR-14)
row,pEC50,SMILES
1,6.70,O=C(Nc1cccc2cccnc12)c1ccc(N2C(=O)[C@@H]3[C@@H]4CCC(C4)[C@@H]3C2=O)cc1 [Compound 52]
2,5.70,O=C1[C@@H]2[C@@H]3C=CC(C3)[C@@H]2C(=O)N1c1ccc(S(=O)(=O)Nc2cccc(Br)c2)cc1 [IWR-10]
3,< 4.60,O=C1[C@@H]2[C@@H]3C=CC(C3)[C@@H]2C(=O)N1c1ccc(S(=O)(=O)Nc2cccc3cccnc23)cc1 [IWR-8]
4,< 4.60,O=C1[C@@H]2[C@@H]3C=CC(C3)[C@@H]2C(=O)N1c1ccc(S(=O)(=O)Nc2ccccc2Br)cc1 [IWR-9]
5,5.52,O=C1[C@@H]2[C@@H]3C=CC(C3)[C@@H]2C(=O)N1c1ccc(S(=O)(=O)Nc2ccc(Br)cc2)cc1 [IWR-11]
6,5.00,COc1ccc(NS(=O)(=O)c2ccc(N3C(=O)[C@@H]4[C@@H]5C=CC(C5)[C@@H]4C3=O)cc2)cc1 [IWR-14]
7,< 4.60,CN(C(=O)c1ccc(N2C(=O)[C@@H]3[C@@H]4C=CC(C4)[C@@H]3C2=O)cc1)c1cccc2cccnc12 [Compound 50]
8,5.00,COc1ccccc1NS(=O)(=O)c1ccc(N2C(=O)[C@@H]3[C@@H]4C=CC(C4)[C@@H]3C2=O)cc1 [IWR-12]
9,5.22,COc1cccc(NS(=O)(=O)c2ccc(N3C(=O)[C@@H]4[C@@H]5C=CC(C5)[C@@H]4C3=O)cc2)c1 [IWR-13]

row,SMILES,pEC50
1,O=C(Nc1cccc2cccnc12)c1ccc(N2C(=O)[C@@H]3[C@H]4C=CC(C4)[C@@H]3C2=O)cc1 [Compound 51],5.30
